Series [1] is described as follows: Pharmacokinetic studies in the mouse (i.v. clearance, plasma levels). In kind it is in vivo. The note with it: mouse, 25 mg/kg; for clearance: CD-1, plasma, iv. Here is the method:
Pharmacokinetic Studies in the Mouse
Sample Preparation and Dosing
Compounds were dissolved in sterile TRIS solution (0.02M or 0.05M) at a concentration of 2.5 mg/ml. Where necessary to ensure a complete solution, the sample was first dissolved in a minimum of dimethylacetamide (maximum of 5% of total solution volume) then diluted with the TRIS solution.
The drug solution was administered to CD-1 mice (Charles River Laboratories—26-31 g) via the tail vein at a dose volume of 10 ml/kg giving a drug dose of 25 mg/kg.
Mice were dosed in groups of 5 for each timepoint (generally from 2 minutes to 2 hours) then at the appropriate time the animals were anaesthetised with halothane and the blood collected into individual heparinized tubes by jugular severance. The blood samples were cooled to 0° C. then the plasma separated and stored at −20° C. until assayed.
Drug concentration in the plasma samples were determined by HPLC analysis with UV or MS (ESP) detection. Reverse phase chromatography was employed using a variety of bonded phases from C1 to C18 with eluents composed of aqueous buffer/acetonitrile mixtures run under isocratic conditions.
Quantitation was by external standard methods with calibration curves constructed by spiking plasma with drug solutions to give concentrations in the range of 0.5 to 50 μg/ml.
Prior to analysis the plasma samples were deproteinated by the addition of acetonitrile, methanol, trichloroacetic acid or perchloric acid followed by centrifugation at 10,000 g for 10 minutes. Sample volumes of 20 μl to 50 μl were injected for analysis.
The drug was dissolved in sterile 0.02M Tris to give a 2.5 mg/ml solution which was administered to […] of 5 male CD-1 mice via the tail vein at a dose of 25 mg/kg. At each of the following timepoints: 2, 5, 10, 15, 20, 30, 45, 60, 90 and 120 minutes a group of animals was anaesthetised and the blood collected into heparinized tubes. After separation the plasma was stored at −20° C. until assayed.
Aliquots of plasma (150 μl) were treated with 5% perchloric acid (5 μl) then mixed by vortexing and allowed to stand for 90 minutes prior to centrifugation. The resulting supernatant was separated and 20 μl was injected for HPLC analysis.
Aliquots of plasma (100 μl) were diluted with acetonitrile (100 μl) then mixed by vortexing for 20 seconds before centrifugation for 10 minutes. The resulting supernatant was separated and 20 μl was injected for HPLC analysis.

Another series has as its target T1, ICE (Homo sapiens, UniProt P29466).
T1 sequence (P29466 120-297 limits assumed): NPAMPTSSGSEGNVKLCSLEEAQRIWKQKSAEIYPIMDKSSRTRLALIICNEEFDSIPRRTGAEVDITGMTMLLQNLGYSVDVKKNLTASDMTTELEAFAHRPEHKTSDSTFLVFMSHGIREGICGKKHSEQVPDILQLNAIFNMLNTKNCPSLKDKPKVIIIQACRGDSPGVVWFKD
T1 sequence (P29466 317-404 limits assumed): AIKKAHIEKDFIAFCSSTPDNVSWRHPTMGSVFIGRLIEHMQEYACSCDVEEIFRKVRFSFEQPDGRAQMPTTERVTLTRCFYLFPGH
Kind of series: Enzyme assay with UV-visible substrate (visible ICE assay, Succinyl-Tyr-Val-Ala-Asp-pNitroanilide). It is filed as biochemical. Summed up: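 Human ICE was preincubated with inhibitor in DMSO and buffer for 15 min at room temperature, then succinyl-Tyr-Val-Ala-Asp-pNA was added. pNA release was followed at 405-603 nm for 20 min at 37° C. Ki and inhibition mode came from fitting rates to standard kinetic equations.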

The test system of series [2] is IL-1β production, LPS-challenged mice. Kind of series: In vivo acute assay for efficacy as anti-inflammatory agent: LPS-induced IL-1β production in mice. As to conditions: for inhibition at 50 mg/kg: Mus musculus, po, read-out: percent inhibition of IL-1β production; for inhibition at 50 mg/kg / percent inhibition of IL-1β production: LPS challenged mice, compound PO, 50 mg/kg; for IP % Inhibition / POS Inhibition: % inhibition of IL-β production, LPS-challenged mice, 50 mg/kg (Table 3); for POS Inhibition: PO. Details: species or system mouse. Summed up:
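CD1 mice (n=6) were challenged with LPS 20 mg/kg IP and given compound IP in olive oil:DMSO:ethanol (90:5:5) 1 h after LPS, or at the time of challenge for some analogs. Blood was taken 7 h after LPS and serum IL-1β was measured by ELISA. Oral gavage at 50 mg/kg was also tested.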

Series [3] can be described thus: In vivo rat clearance assay. As to conditions: for clearance: plasma, iv. The procedure, abridged:
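Rats cannulated a day beforehand received 10–20 mg/kg by intravenous jugular dosing in propylene glycol/saline with 100 mM sodium bicarbonate. Carotid blood was sampled from 0 to 90 min, and plasma was extracted with acetonitrile/0.1% TFA for HPLC quantification. Clearance from non-linear regression pharmacokinetic analysis.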

Where [4] appears, read: 1 h, administered +1 h relative to time of LPS challenge.
The mark [5] stands for this setting: 0 h, administered 0 h relative to time of LPS challenge.
Setting [6] is: 2 h, administered −2 h relative to time of LPS challenge.

Read-outs that look alike come from different tables or passages of the source.

As usually defined, the clearance is the rate of elimination divided by the concentration. The low end stands for a low capacity for elimination, the high end for a high capacity for elimination. What is called Ki is a dissociation constant, usually derived from enzyme kinetics or from competition with a known ligand. A lower Ki goes with higher affinity. Consider `CC(=O)N1C[C@H](NC(=O)c2ccc3ccccc3c2)C(=O)N(CC(=O)N[C@H](C=O)CC(=O)O)c2ccccc21` [Compound 605n], for which the clearance in series [1] was 28 mL/min/kg. The affinity at ICE (Table 5) corresponds to a Ki of 12 nM.
For `CC(=O)N[C@H]1CCC(=O)N2CCC[C@@H](C(=O)N[C@@H](CC(=O)O)C(=O)COC(=O)c3c(Cl)cccc3Cl)N2C1=O` [Compound 217c, [3S(1S,9S)]3-(9-Acetylamino-6,10-dioxo-1,2,3,4,7,8,9,10-octahydro-6H-pyridazino-[1,2-a][1,2]diazepine-1-carboxamido)-5-(2,6-dichlorobenzoyloxy)-4-oxopentanoic acid], the clearance in series [1] is 70 mL/min/kg.
A word on the inhibition: it is how much of the control response was suppressed. On to `O=C[C@H](CC(=O)O)NC(=O)CN1C(=O)[C@@H](NC(=O)c2ccccc2)CN(C(=O)CO)c2ccccc21` [Compound 668, (3S)-3-[(3S)-2-Oxo-3-benzoylamino-5-(2-hydroxy)acetyl-2,3,4,5-tetrahydro-1H-1,5-benzodiazepine-1-acetylamino]-4-oxo-butyric acid], for which, in series [2] (setting [4]), the inhibition at 50 mg/kg amounted to 53%. The compound further had a clearance in series [3] (Table 17) of 29 mL/min/kg. The Ki at ICE (Table 17) was determined as 9 nM.
As for `CN(C)c1ccc(C(=O)N[C@H]2CCC(=O)N3CCC[C@@H](C(=O)N[C@H](C=O)CC(=O)O)N3C2=O)cc1` [Compound 471], the inhibition at 50 mg/kg came to 34% in series [2] (setting [5]) and 0% in series [2] (setting [6]). Also, the clearance in series [3] (10-20 mg/kg) was 17 mL/min/kg. In addition, affinity on ICE (Table 5) was put at a Ki of 1 nM.
With `O=C[C@H](CC(=O)O)NC(=O)[C@@H]1CCCN2C(=O)CC[C@H](NC(=O)c3ccc(Cl)cc3)C(=O)N12` [Compound 416], in series [2], the “IP % Inhibition” value was 39% and the “POS Inhibition” value stood at 52%. For the same compound, in series [3] (10-20 mg/kg), the clearance stood at 47 mL/min/kg. At ICE (Table 5), this compound had a Ki of 12 nM.
Turning to `O=C[C@H](CC(=O)O)NC(=O)[C@@H]1CCCN2C(=O)CC[C@H](NC(=O)c3cc(Cl)c(O)c(Cl)c3)C(=O)N12` [Compound 214k, [3S(1S,9S)]3-(9-(3,5-Dichloro-4-hydroxybenzoyl)amino-6,10-dioxo-1,2,3,4,7,8,9,10-octahydro-6H-pyridazino[1,2-a][1,2]diazepine-1-carboxamido)-4-oxobutanoic acid], the values for the inhibition at 50 mg/kg in series [2] (setting [5]) and in series [2] (setting [6]) were 31% and 12%, respectively. The same compound showed a clearance in series [3] (Table 17) of 22 mL/min/kg. Besides, the Ki at ICE (Table 17) worked out at 0.2 nM.
As to `O=C[C@H](CC(=O)O)NC(=O)[C@@H]1CCCN2C(=O)CC[C@H](NC(=O)c3ccc4nc[nH]c4c3)C(=O)N12` [Compound 434], in series [2], the “IP % Inhibition” value is recorded as 74%. Moreover, the “POS Inhibition” value in series [2] was found to be 80%. In addition, the inhibition at 50 mg/kg in series [2] (setting [5]) came out at 63%; in series [2] (setting [4]) it was 80%; in series [2] (setting [6]) it was 0%. The clearance in series [3] (10-20 mg/kg) came out at 20 mL/min/kg. This compound yielded a Ki at ICE (Table 5) of 4.9 nM.
As to `CN(C)c1cccc(C(=O)N[C@H]2CCC(=O)N3CCC[C@@H](C(=O)N[C@H](C=O)CC(=O)O)N3C2=O)c1` [Compound 470], the figures for the inhibition at 50 mg/kg in series [2] (setting [5]) and in series [2] (setting [6]) were 36% and 0%, respectively. Further, in series [3] (10-20 mg/kg), the clearance was 63 mL/min/kg. In addition, the Ki on ICE (Table 5) was 5 nM.
Turning to `O=C(O)CC(NC(=O)[C@@H]1CCCN2C(=O)CC[C@H](NC(=O)c3ccccc3)C(=O)N12)C(=O)CF` (stereo partly drawn) [Compound 230e, [3RS,(1S,9S)]3-(9-Benzoylamino-6,10-dioxo-1,2,3,4,7,8,9,10-octahydro-6H-pyridazino[1,2-a][1,2]-diazepine-1-carboxamido)-5-fluoro-4-oxopentanoic acid], the “Clearance Mouse, i.v.” value in series [1] (i.v.) stood at 67 mL/min/kg.
`COc1c(Cl)cc(C(=O)N[C@H]2CCC(=O)N3CCC[C@@H](C(=O)N[C@H](C=O)CC(=O)O)N3C2=O)cc1Cl` [Compound 214m]: the inhibition at 50 mg/kg in series [2] (setting [5]) came to 17%; in series [2] (setting [6]) it was 0%. Moreover, the clearance in series [3] (Table 17) turned out to be 33.4 mL/min/kg. On ICE (Table 17), this compound registered a Ki of 1.5 nM.
`CS(=O)(=O)N[C@H]1CCC(=O)N2CCC[C@@H](C(=O)N[C@@H](CC(=O)O)C(=O)COC(=O)c3c(Cl)cccc3Cl)N2C1=O` [Compound 138]: in series [1], the clearance is 116 mL/min/kg.
Regarding `Cc1cc(C(=O)N[C@H]2CCC(=O)N3CCC[C@@H](C(=O)N[C@H](C=O)CC(=O)O)N3C2=O)cc(C)c1O` [Compound 214w], the “percent inhibition of IL-1β production” value turned out to be 91% in series [2] (administered 0 h relative to time of LPS challenge) and 11% in series [2] (administered −2 h relative to time of LPS challenge). For the same compound, the “Clearance Rat, i.v.” value in series [3] (Table 17) came to 15 mL/min/kg. Further, at ICE (Table 17), the Ki was 0.6 nM.
Turning to `CC(=O)Nc1ccc(C(=O)N[C@H]2CCC(=O)N3CCC[C@@H](C(=O)N[C@H](C=O)CC(=O)O)N3C2=O)cc1Cl` [Compound 214l, [3S(1S,9S)]3-(9-(3-Chloro-4-acetamidobenzoyl)amino-6,10-dioxo-1,2,3,4,7,8,9,10-octahydro-6H-pyridazino[1,2-a][1,2]diazepine-1-carboxamido)-4-oxobutanoic acid], the values for the inhibition at 50 mg/kg in series [2] (setting [5]) and in series [2] (setting [6]) were 54% and 0%, respectively. In series [3] (Table 17), this compound yielded a clearance of 12 mL/min/kg. The compound also returned a Ki at ICE (Table 17) of 6 nM.
Consider `O=C[C@H](CC(=O)O)NC(=O)[C@@H]1CCCN2C(=O)CC[C@H](NC(=O)c3cc4ccsc4s3)C(=O)N12` [Compound 442], for which, in series [2], the “IP % Inhibition” value is reported as 0% and the “POS Inhibition” value turned out to be 10%. In series [3] (10-20 mg/kg), this compound registered a clearance of 54 mL/min/kg. Further, the inhibitory constant (Ki) on ICE (Table 5) came to 3.2 nM.
In the case of `CC(=O)N1C[C@H](NC(=O)c2cc(Cl)c(O)c(Cl)c2)C(=O)N(CC(=O)N[C@H](C=O)CC(=O)O)c2ccccc21` [Compound 656, (3S)-3-[(3S)-2-Oxo-3-(3,5-dichloro, 4-hydroxybenzoyl)amino-5-acetyl-2,3,4,5-tetrahydro-1H-1,5-benzodiazepine-1-acetylamino-]4-oxo-butyric acid], the inhibition at 50 mg/kg in series [2] (setting [5]) worked out at 16%; in series [2] (setting [6]) it was 31%. In series [3] (Table 17), this compound gave a clearance of 2.9 mL/min/kg. At ICE (Table 17), this compound showed a Ki of 0.6 nM.
`O=C[C@H](CC(=O)O)NC(=O)CN1C(=O)[C@@H](NC(=O)c2cc(Cl)c(O)c(Cl)c2)CN(C(=O)CO)c2ccccc21` [Compound 662, (3S)-3-[(3S)-2-Oxo-3-(3,5-dichloro-4-hydroxybenzoyl)amino-5-(2-hydroxy)acetyl-2,3,4,5-tetrahydro-1H-1,5-benzodiazepine-1-acetylamino]-4-oxo-butyric acid]: the inhibition at 50 mg/kg in series [2] (setting [5]) was 75%; in series [2] (setting [6]), 41%. Further, the clearance in series [3] (Table 17) is 2.75 mL/min/kg. On ICE (Table 17), this compound gave a Ki of 0.5 nM.
For `O=C(O)C[C@H](NC(=O)[C@@H]1CCCN2C(=O)CC[C@H](NC(=O)CCc3ccccc3)C(=O)N12)C(=O)COC(=O)c1c(Cl)cccc1Cl` [Compound 136], the clearance in series [1] was found to be 93 mL/min/kg.
In turn, `COc1cccc2nc(C(=O)[C@H](CC(=O)O)NC(=O)[C@@H]3CCCN4C(=O)CC[C@H](NC(=O)CCc5ccccc5)C(=O)N34)oc12` [Compound 135a] registered a clearance in series [1] above 100 mL/min/kg.

The record behind these values is patent publication US20120165319A1, “INHIBITORS OF INTERLEUKIN-1 BETA CONVERTING ENZYME” (VERTEX PHARMACEUTICALS INCORPORATED, priority 1995, published 2012).
